Assay [1] relates to rat model of AI. The following applies: AI induced with PG-APS; cited from earlier work.
Assay [2] has as its system animals models of AKI. The following applies: cited from earlier work; for renal IRI severity: literature (37-39; 7, 37).
Assay [3] deals with hepcidin. The following applies: hepcidin inducers; cited from earlier work.
Assay [4] deals with splenocytes from WT mice. Kind of assay: Iron stimulation of splenocytes, IL-6 secretion by ELISA. The class given is cell-based. The following applies: iron treatment for 4 hours, vs untreated and hepcidin-treated cells, p<0.005; FIG. 10c. The method, then:
Splenocytes were harvested from 10-week-old B6 male mice. After excising the spleen, red blood cells were lysed and the remaining splenocytes were seeded at 1×10^6 cells/mL in 24-well tissue culture plates and cultured under 5% CO2 at 37° C. for 24 hours. The culture medium consisted of RPMI 1640 medium supplemented with 10% fetal calf serum (FCS), 100 U/mL penicillin, 100 μg/mL streptomycin, 1% non-essential amino acids (Gibco/Life Technologies, Foster, Calif., USA), 2 mM L-glutamine (Sigma), and 50/μM 2-mercaptoethanol. After resting for 24 hours, the cells were treated with 10 μM […] (FAC), 1 μg/mL hepcidin or saline for 4 hours. The cell culture supernatants were harvested and quantified for the levels of IL-6 by ELISA (eBioscience).

The test system of assay [5] is hepcidin. Particulars: within 2-5 days after the start of the treatment; cited from earlier work.

Entries after “also recorded” stand apart in the source; their conditions may differ.

Consider `c1ccc2c(-c3cnn4cc(-c5ccc(N6CCNCC6)cc5)cnc34)ccnc2c1` [LDN-193189], for which the “anemia of inflammation (AI)” value in assay [1] is given as “effectively reversed anemia”.
For the compound `CC(=O)N(O)CCCCCNC(=O)CCC(=O)N(O)CCCCCNC(=O)CCC(=O)N(O)CCCCCN` [desferrioxamine], the “protection in animal models of AKI” value in assay [2] (iron chelation) is on record as “induces protection in diverse animals models of AKI”. Further, the “renal IRI severity” value in assay [2] is “attenuate IRI; also recorded: provide protection and significantly improve its severity and outcomes”.
Consider `CC(C)Oc1ccc2c(=O)c(-c3ccccc3)coc2c1` [ipriflavone], for which the “active concentration, fold below that required for genistein's effect” value in assay [3] is 10 fold.
For the compound `O=C(CCCCCCC(=O)Nc1ccccc1)NO` [vorinostat], in assay [3], the “active concentration, fold below that required for genistein's effect” value is reported as 10 fold.
ferrous sulfate [reference compound]: the “IL-6 secretion into supernatants” value in assay [4] was “significantly increased splenocytes IL-6 secretion”.
For the compound low-molecular-weight heparin, the “decrease of serum hepcidin concentrations” value in assay [5] is recorded as approximately 80%.
For superoxide dismutase, the “renal IRI severity” value in assay [2] is “attenuate IRI”.

These data come from patent publication US11020457B2, “Compositions and methods for protecting the kidney from ischemia reperfusion injury” (University of Virginia Patent Foundation, priority 2013, dated 2021).
